For twelve molecules, Ki results are on record in patent publication US20190185518A9, “WARHEAD-CONTAINING PEPTIDOMIMETIC MACROCYCLES AS MODULATORS OF BFL-1” (AILERON Therapeutics, Inc., priority 2017, published 2019).

For test [1], the target named is Bcl-2 (Homo sapiens, UniProt P10415). The experiment in a line: Ki determination for Bcl-2 (BCL-2 family binding spectrum). As to conditions: read-out: Ki BCL-2. An excerpt:
(§1) To assess the binding and affinity of compounds that antagonize the interaction between a peptide and an acceptor protein, a fluorescence polarization assay (FPA) utilizing a fluoresceinated peptidomimetic macrocycle derived from a peptidomimetic precursor sequence is used, for example. The FPA technique measures the molecular orientation and mobility using polarized light and fluorescent tracer. […] A compound that antagonizes the interaction between the fluoresceinated peptidomimetic macrocycle and an acceptor protein will be detected in a competitive binding FPA experiment.
(§2) For example, putative antagonist compounds (1 nM to 1 mM) and a fluoresceinated peptidomimetic macrocycle (25 nM) are incubated with the acceptor protein (50 nM) in binding buffer (140 mM NaCl, 50 mM Tris-HCL, pH 7.4) for 30 minutes at room temperature. Antagonist binding activity is measured, for example, by fluorescence polarization on a luminescence spectrophotometer (e.g. Perkin-Elmer LS50B). Kd values may be determined by nonlinear regression analysis using, for example, Graphpad Prism software (GraphPad Software, Inc., San Diego, Calif.).

Test [2] addresses Bcl-xL (Homo sapiens, UniProt Q07817). The experiment in a line: Ki determination for Bcl-xL (BCL-2 family binding spectrum). As to conditions: read-out: Ki BCL-XL.
Excerpt: as §1, §2

The target in test [3] is Mcl-1 (Homo sapiens, UniProt Q07820). Kind of test: Ki determination for Mcl-1 (BCL-2 family binding spectrum). Conditions: read-out: Ki MCL-1. The method, boiled down: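 Binding to Mcl-1 was measured as displacement of a fluorescein-labelled macrocyclic peptidomimetic, read by fluorescence polarization. Constants were fitted by nonlinear regression.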
Chain of Mcl-1 (Q07820 whole entry, species assumed): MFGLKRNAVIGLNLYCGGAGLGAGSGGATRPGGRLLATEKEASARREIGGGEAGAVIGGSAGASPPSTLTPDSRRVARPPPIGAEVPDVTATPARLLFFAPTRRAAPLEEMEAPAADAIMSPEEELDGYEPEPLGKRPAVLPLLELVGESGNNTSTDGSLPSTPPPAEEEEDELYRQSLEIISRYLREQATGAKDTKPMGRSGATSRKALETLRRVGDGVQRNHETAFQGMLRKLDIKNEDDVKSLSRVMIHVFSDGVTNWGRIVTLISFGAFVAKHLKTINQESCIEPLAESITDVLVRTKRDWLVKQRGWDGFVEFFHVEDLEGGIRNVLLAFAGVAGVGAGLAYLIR

Positions of bridges follow the written chain, without caps; N, C: chain ends. Non-standard residues stand in square brackets, D forms with d. Residues, ends and D or L forms follow the SMILES beside them. Phe(4-tBu) = CC(C)(C)c1ccc(C[C@H](N)C(=O)O)cc1; Phe(4-F) = N[C@@H](Cc1ccc(F)cc1)C(=O)O; R8 = C=CCCCCCC[C@@](C)(N)C(=O)O; αMeL = CC(C)C[C@](C)(N)C(=O)O; hLeu = CC(C)CC[C@H](N)C(=O)O; S5 = C=CCCC[C@](C)(N)C(=O)O; Aib = CC(C)(N)C(=O)O Bounds are passed on as bounds.

Usually Ki stands for a dissociation constant, usually derived from enzyme kinetics or from competition with a known ligand.

Chain of Bcl-xL (Q07817 whole entry, species assumed): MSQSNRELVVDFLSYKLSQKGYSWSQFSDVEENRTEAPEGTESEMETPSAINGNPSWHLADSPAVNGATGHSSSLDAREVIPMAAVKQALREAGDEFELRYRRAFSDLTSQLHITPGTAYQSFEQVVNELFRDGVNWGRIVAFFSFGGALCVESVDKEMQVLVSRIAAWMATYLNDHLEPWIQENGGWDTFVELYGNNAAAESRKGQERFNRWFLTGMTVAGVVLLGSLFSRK
Chain of Bcl-2 (P10415 whole entry, species assumed): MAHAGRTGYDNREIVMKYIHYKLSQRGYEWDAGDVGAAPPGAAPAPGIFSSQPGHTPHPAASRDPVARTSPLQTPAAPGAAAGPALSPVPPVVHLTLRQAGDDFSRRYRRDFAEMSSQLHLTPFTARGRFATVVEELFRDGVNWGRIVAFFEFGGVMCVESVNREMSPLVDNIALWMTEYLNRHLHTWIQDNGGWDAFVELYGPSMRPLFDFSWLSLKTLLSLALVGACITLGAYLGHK

Turning to `CC[C@H](C)[C@H](NC(C)=O)C(=O)N[C@@H](Cc1c[nH]c2ccccc12)C(=O)N[C@H](C(=O)N[C@@H](C)C(=O)N[C@@H](CCC(N)=O)C(=O)N[C@@H](CCC(=O)O)C(=O)N[C@@H](CC(C)C)C(=O)N[C@@H](CCCNC(=N)N)C(=O)N[C@]1(C)CCCCCCC=CCCC[C@@](C)(C(=O)N[C@@H](Cc2ccc(O)cc2)C(=O)N[C@@H](Cc2ccc(O)cc2)C(=O)N[C@@H](C)C(=O)N[C@@H](CCCNC(=N)N)C(=O)N[C@@H](CCCNC(=N)N)C(N)=O)NC(=O)[C@H](CC(N)=O)NC(=O)[C@H](Cc2ccccc2)NC(=O)[C@H](CCC(=O)O)NC(=O)[C@H](CC(=O)O)NC(=O)CNC(=O)[C@H]([C@@H](C)CC)NC1=O)[C@@H](C)CC` [compound 1629], the Ki in test [1] was 23.5 nM. As to `CC[C@H](C)[C@H](NC(C)=O)C(=O)N[C@@H](Cc1c[nH]c2ccccc12)C(=O)N[C@@H](Cc1ccc(C(C)(C)C)cc1)C(=O)N[C@@H](C)C(=O)N[C@@H](CCC(N)=O)C(=O)N[C@@H](C)C(=O)N[C@@H](CC(C)C)C(=O)N[C@@H](CCCNC(=N)N)C(=O)N[C@]1(C)CCCCCCC=CCCC[C@@](C)(C(=O)N[C@@H](Cc2ccc(O)cc2)C(=O)N[C@@H](Cc2ccc(O)cc2)C(=O)N[C@@H](C)C(N)=O)NC(=O)[C@H](CC(N)=O)NC(=O)[C@H](Cc2ccccc2)NC(=O)[C@H](C)NC(=O)[C@H](CC(=O)O)NC(=O)CNC(=O)[C@H]([C@@H](C)CC)NC1=O` [compound 1684] (Ac-IW[Phe(4-tBu)]AQALR[R8]IGDAFN[S5]YYA-NH2; staple 9-16), the inhibition constant (Ki) in test [1] was more than 1000 nM.

As to `CC[C@H](C)[C@H](NC(=O)[C@H](Cc1c[nH]c2ccccc12)NC(=O)[C@](C)(CC(C)C)NC(C)=O)C(=O)N[C@@H](C)C(=O)N[C@@H](CCC(N)=O)C(=O)N[C@@H](C)C(=O)N[C@@H](CC(C)C)C(=O)N[C@@H](CCCNC(=N)N)C(=O)N[C@]1(C)CCCCCCC=CCCC[C@@](C)(C(=O)N[C@@H](Cc2ccc(O)cc2)C(=O)N[C@@H](Cc2ccc(O)cc2)C(=O)N[C@@H](C)C(N)=O)NC(=O)[C@H](CC(N)=O)NC(=O)[C@H](Cc2ccccc2)NC(=O)[C@H](C)NC(=O)[C@H](CC(=O)O)NC(=O)CNC(=O)[C@H]([C@@H](C)CC)NC1=O` [compound 1705] (Ac-[αMeL]WIAQALR[R8]IGDAFN[S5]YYA-NH2; staple 9-16), the Ki in test [2] was determined as 8.4 nM; in test [3] it was 5.2 nM. For `CC[C@H](C)[C@H](NC(C)=O)C(=O)N[C@@H](CC(=O)O)C(=O)N[C@H](C(=O)N[C@@H](C)C(=O)N[C@@H](C)C(=O)N[C@@H](C)C(=O)N[C@@H](CC(C)C)C(=O)N[C@@H](CCCNC(=N)N)C(=O)N[C@]1(C)CCCCCCC=CCCC[C@@](C)(C(=O)N[C@@H](Cc2ccc(O)cc2)C(=O)N[C@@H](Cc2ccc(O)cc2)C(=O)N[C@@H](C)C(N)=O)NC(=O)[C@H](CC(N)=O)NC(=O)[C@H](Cc2ccccc2)NC(=O)[C@H](C)NC(=O)[C@H](CC(=O)O)NC(=O)CNC(=O)[C@H]([C@@H](C)CC)NC1=O)[C@@H](C)CC` [compound 1725] (Ac-IDIAAALR[R8]IGDAFN[S5]YYA-NH2; staple 9-16), in test [2], the Ki came to 36.3 nM.

As to `CC[C@H](C)[C@H](NC(C)=O)C(=O)N[C@@H](Cc1c[nH]c2ccccc12)C(=O)N[C@H](C(=O)N[C@@H](C)C(=O)N[C@@H](CCC(N)=O)C(=O)N[C@@H](C)C(=O)N[C@@H](CC(C)C)C(=O)N[C@@H](CCCNC(=N)N)C(=O)N[C@]1(C)CCCCCCC=CCCC[C@@](C)(C(=O)N[C@@H](Cc2ccc(O)cc2)C(=O)N[C@@H](Cc2ccc(O)cc2)C(=O)N[C@@H](C)C(N)=O)NC(=O)[C@H](CC(N)=O)NC(=O)[C@H](Cc2ccc(C(C)(C)C)cc2)NC(=O)[C@H](C)NC(=O)[C@H](CC(=O)O)NC(=O)CNC(=O)[C@H]([C@@H](C)CC)NC1=O)[C@@H](C)CC` [compound 1745] (Ac-IWIAQALR[R8]IGDA[Phe(4-tBu)]N[S5]YYA-NH2; staple 9-16), the inhibitory constant (Ki) in test [2] turned out to be 154 nM; in test [3], 21.2 nM. In the case of `CC[C@H](C)[C@H](NC(C)=O)C(=O)N[C@@H](Cc1c[nH]c2ccccc12)C(=O)N[C@H](C(=O)N[C@@H](C)C(=O)N[C@@H](C)C(=O)N[C@@H](C)C(=O)N[C@@H](CC(C)C)C(=O)N[C@@H](CCCNC(=N)N)C(=O)N[C@]1(C)CCCCCCC=CCCC[C@@](C)(C(=O)N[C@@H](Cc2ccc(O)cc2)C(=O)N[C@@H](Cc2ccc(O)cc2)C(=O)N[C@@H](C)C(N)=O)NC(=O)[C@H](CC(=O)O)NC(=O)[C@H](Cc2ccccc2)NC(=O)[C@H](C)NC(=O)[C@H](CC(=O)O)NC(=O)CNC(=O)[C@H]([C@@H](C)CC)NC1=O)[C@@H](C)CC` [compound 1748] (Ac-IWIAAALR[R8]IGDAFD[S5]YYA-NH2; staple 9-16), in test [2], the Ki stood at 25.9 nM. For `CC[C@H](C)[C@H](NC(C)=O)C(=O)N[C@@H](Cc1c[nH]c2ccccc12)C(=O)N[C@H](C(=O)N[C@@H](C)C(=O)N[C@@H](C)C(=O)N[C@@H](C)C(=O)N[C@@H](CC(C)C)C(=O)N[C@@H](CCCNC(=N)N)C(=O)N[C@]1(C)CCCCCCC=CCCC[C@@](C)(C(=O)N[C@@H](Cc2ccc(O)cc2)C(=O)N[C@@H](Cc2ccc(O)cc2)C(=O)N[C@@H](C)C(N)=O)NC(=O)[C@H](Cc2c[nH]cn2)NC(=O)[C@H](Cc2ccccc2)NC(=O)[C@H](C)NC(=O)[C@H](CC(=O)O)NC(=O)CNC(=O)[C@H]([C@@H](C)CC)NC1=O)[C@@H](C)CC` [compound 1752] (Ac-IWIAAALR[R8]IGDAFH[S5]YYA-NH2; staple 9-16), the figures for the Ki in test [2] and in test [3] were 36.3 nM and 8 nM, respectively. `CC[C@H](C)[C@H](NC(C)=O)C(=O)N[C@@H](Cc1c[nH]c2ccccc12)C(=O)N[C@H](C(=O)N[C@@H](C)C(=O)N[C@@H](CCC(N)=O)C(=O)N[C@@H](C)C(=O)N[C@@H](CC(C)C)C(=O)N[C@@H](CCCNC(=N)N)C(=O)N[C@]1(C)CCCCCCC=CCCC[C@@](C)(C(=O)N[C@@H](Cc2ccc(O)cc2)C(=O)N[C@@H](CC(C)C)C(=O)N[C@@H](C)C(N)=O)NC(=O)[C@H](CC(N)=O)NC(=O)[C@H](Cc2ccccc2)NC(=O)[C@H](C)NC(=O)[C@H](CC(=O)O)NC(=O)CNC(=O)[C@H]([C@@H](C)CC)NC1=O)[C@@H](C)CC` [compound 1755] (Ac-IWIAQALR[R8]IGDAFN[S5]YLA-NH2; staple 9-16): in test [2], the inhibition constant Ki was 9 nM. On to `CC[C@H](C)[C@H](NC(C)=O)C(=O)N[C@@H](Cc1c[nH]c2ccccc12)C(=O)N[C@H](C(=O)N[C@@H](C)C(=O)N[C@@H](CCC(N)=O)C(=O)N[C@@H](C)C(=O)N[C@@H](CC(C)C)C(=O)N[C@@H](CCCNC(=N)N)C(=O)N[C@]1(C)CCCCCCC=CCCC[C@@](C)(C(=O)N[C@@H](Cc2ccc(O)cc2)C(=O)N[C@@H](Cc2ccc(O)cc2)C(=O)NC(C)(C)C(N)=O)NC(=O)[C@H](CC(N)=O)NC(=O)[C@H](Cc2ccccc2)NC(=O)[C@H](C)NC(=O)[C@H](CC(=O)O)NC(=O)CNC(=O)[C@H]([C@@H](C)CC)NC1=O)[C@@H](C)CC` [compound 1770] (Ac-IWIAQALR[R8]IGDAFN[S5]YY[Aib]-NH2; staple 9-16), for which the Ki in test [2] is more than 1000 nM.

As to `CC[C@H](C)[C@H](NC(C)=O)C(=O)N[C@@H](Cc1c[nH]c2ccccc12)C(=O)N[C@H](C(=O)N[C@@H](C)C(=O)N[C@@H](CCC(N)=O)C(=O)N[C@@H](C)C(=O)N[C@@H](CC(C)C)C(=O)N[C@@H](CCCNC(=N)N)C(=O)N[C@]1(C)CCCCCCC=CCCC[C@@](C)(C(=O)N[C@@H](Cc2ccc(O)cc2)C(=O)N[C@@H](Cc2ccc(F)cc2)C(=O)N[C@@H](C)C(N)=O)NC(=O)[C@H](CC(N)=O)NC(=O)[C@H](Cc2ccccc2)NC(=O)[C@H](C)NC(=O)[C@H](CC(=O)O)NC(=O)CNC(=O)[C@H](CCC(C)C)NC1=O)[C@@H](C)CC` [compound 1777] (Ac-IWIAQALR[R8][hLeu]GDAFN[S5]Y[Phe(4-F)]A-NH2; staple 9-16), the inhibition constant Ki in test [2] is 13 nM; in test [3], 27 nM. As for `CC[C@H](C)[C@H](NC(=O)[C@H](Cc1c[nH]c2ccccc12)NC(=O)[C@H](C)NC(C)=O)C(=O)N[C@@H](C)C(=O)N[C@@H](C)C(=O)N[C@@H](C)C(=O)N[C@@H](CC(C)C)C(=O)N[C@@H](CCCNC(=N)N)C(=O)N[C@]1(C)CCCCCCC=CCCC[C@@](C)(C(=O)N[C@@H](C)C(=O)N[C@@H](Cc2ccc(F)cc2)C(=O)N[C@@H](C)C(N)=O)NC(=O)[C@H](CC(N)=O)NC(=O)[C@H](Cc2ccccc2)NC(=O)[C@H](C)NC(=O)[C@H](CC(=O)O)NC(=O)CNC(=O)[C@H](CCC(C)C)NC1=O` [compound 1780] (Ac-AWIAAALR[R8][hLeu]GDAFN[S5]A[Phe(4-F)]A-NH2; staple 9-16), the Ki in test [2] was 9 nM. Turning to `CC[C@H](C)[C@H](NC(C)=O)C(=O)N[C@@H](Cc1c[nH]c2ccccc12)C(=O)N[C@H](C(=O)N[C@@H](C)C(=O)N[C@@H](CCC(N)=O)C(=O)N[C@@H](C)C(=O)N[C@@H](C)C(=O)N[C@@H](CCCNC(=N)N)C(=O)N[C@]1(C)CCCCCCC=CCCC[C@@](C)(C(=O)N[C@@H](Cc2ccc(F)cc2)C(=O)N[C@@H](Cc2ccc(F)cc2)C(=O)N[C@@H](C)C(N)=O)NC(=O)[C@H](CC(N)=O)NC(=O)[C@H](Cc2ccccc2)NC(=O)[C@H](C)NC(=O)[C@H](CC(=O)O)NC(=O)CNC(=O)[C@H](CCC(C)C)NC1=O)[C@@H](C)CC` [compound 1781] (Ac-IWIAQAAR[R8][hLeu]GDAFN[S5][Phe(4-F)][Phe(4-F)]A-NH2; staple 9-16), the Ki in test [2] and in test [3] was more than 1000 nM in each case.
